Measurements as given in ChEMBL document CHEMBL5356995, “Aurones and derivatives as promising New Delhi metallo-β-lactamase (NDM-1) inhibitors” (Bioorg Med Chem, 2024).

Key:
[1] = molecular target: Metallo-beta-lactamase type 2 (Bacteria) (UniProt C7C422); test: Inhibition of bacterial NDM-1 assessed as substrate hydrolysis at 50 uM using imipenem as substrate by spectrophotometric analysis relative to control
Bacteria [2] = test: Inhibition of bacterial IMP-1 assessed as substrate hydrolysis at 50 uM using imipenem as substrate by spectrophotometric analysis relative to control
Bacteria [3] = test: Inhibition of bacterial VIM-2 assessed as substrate hydrolysis at 50 uM using imipenem as substrate by spectrophotometric analysis relative to control
[4] = molecular target: Metallo-beta-lactamase type 2 (Bacteria, UniProt C7C422); test: Competitive inhibition of NDM-1 using imipenem as substrate by spectrophotometric analysis
Klebsiella pneumoniae = test: Potentiation of meropenem induced antibacterial activity against blaNDM-1 producing Klebsiella pneumoniae SI-518 assessed as reduction in meropenem MIC at 32 ug/ml (reference value: 128 ug/ml); format: functional; details: dose 32 µg/ml
Escherichia coli [5] = test: Potentiation of meropenem induced antibacterial activity against blaNDM-4 producing Escherichia coli SI-G001 assessed as reduction in meropenem MIC at 32 ug/ml (reference value: 128 ug/ml); format: functional; details: dose 32 µg/ml
Escherichia coli [6] = test: Potentiation of meropenem induced antibacterial activity against blaNDM-1 producing Escherichia coli SI-004M assessed as reduction in meropenem MIC at 32 ug/ml (reference value: 64 ug/ml); format: functional; details: dose 32 µg/ml

Metallo-beta-lactamase type 2 (Bacteria), sequence (C7C422 whole entry): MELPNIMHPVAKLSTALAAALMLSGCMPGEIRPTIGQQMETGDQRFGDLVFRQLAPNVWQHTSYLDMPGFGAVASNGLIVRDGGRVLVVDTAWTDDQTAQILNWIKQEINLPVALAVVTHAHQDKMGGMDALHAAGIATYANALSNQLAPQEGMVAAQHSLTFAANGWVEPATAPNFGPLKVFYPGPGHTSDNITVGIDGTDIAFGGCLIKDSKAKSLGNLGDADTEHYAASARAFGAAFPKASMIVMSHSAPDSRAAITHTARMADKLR
Metallo-beta-lactamase type 2, sequence (C7C422 whole entry): as above

Row | inhibition [1] | inhibition (Bacteria [2]) | inhibition (Bacteria [3]) | Ki [4] | MIC (Klebsiella pneumoniae) | MIC (Escherichia coli [5]) | MIC (Escherichia coli [6]) | SMILES
1 | < 10% | < 10% | < 10% | – | – | – | – | O=C1/C(=C/c2ccc(O)cc2O)Oc2c(O)cccc21
2 | 49% | 46% | < 10% | – | – | – | – | CC[C@H](C)Cn1cc(/C=C2\Oc3cc(O)cc(O)c3C2=O)c2ccccc21
3 | 55% | 24.9% | < 10% | – | – | – | – | CCc1ccc(/C=C2\Oc3cc(O)cc(O)c3C2=O)cc1
4 | < 10% | 16% | < 10% | – | – | – | – | C=CCn1cc(/C=C2\Oc3cc(O)cc(O)c3C2=O)c2ccccc21
5 | 18% | 47.1% | < 10% | – | – | – | – | CC(C)CCn1cc(/C=C2\Oc3cc(O)cc(O)c3C2=O)c2ccccc21
6 | 39% | 24% | < 10% | – | – | – | – | COc1cc(OC)c2c(c1)O/C(=C\c1ccc(-c3cccs3)cc1)C2=O
7 | < 10% | < 10% | < 10% | – | – | – | – | O=C1/C(=C/c2ccc(Cl)cc2)Oc2c(O)cccc21
8 | < 10% | 12% | < 10% | – | – | – | – | CN1CCN(c2ccc(/C=C3\Oc4cccc(O)c4C3=O)cc2)CC1
9 | 78% | 31% | < 10% | 16 µM | 64 µg/mL | 128 µg/mL | 64 µg/mL | O=C1/C(=C/c2cn(Cc3cccc(O)c3)c3ccccc23)Oc2cc(O)cc(O)c21
10 | < 10% | < 10% | < 10% | – | – | – | – | COc1ccc(/C=C2\Oc3cc(OC)cc(OC)c3C2=O)c(OC)c1
11 | < 10% | < 10% | < 10% | – | – | – | – | O=C1/C(=C/c2ccc(O)cc2O)Oc2ccccc21
12 | < 10% | < 10% | < 10% | – | – | – | – | COc1ccc(/C=C2\Oc3ccccc3C2=O)c(OC)c1OC
13 | 11.2% | 28% | < 10% | – | – | – | – | CC(C)(C)CCn1cc(/C=C2\Oc3cc(O)cc(O)c3C2=O)c2ccccc21
14 | 41% | 25% | < 10% | – | – | – | – | CCCCOc1ccc(/C=C2\Oc3cc(O)cc(O)c3C2=O)cc1
15 | < 10% | 14% | < 10% | – | – | – | – | O=C1/C(=C/c2ccc(O)cc2O)Oc2cc(O)cc(O)c21
16 | 20% | < 10% | < 10% | – | – | – | – | COc1ccc(/C=C2\Oc3c(O)cccc3C2=O)cc1
17 | 20% | 24% | < 10% | – | – | – | – | O=C1/C(=C/c2ccc(O)cc2O)Oc2c1ccc(O)c2O
18 | < 10% | < 10% | < 10% | – | – | – | – | COc1cc(/C=C2\Oc3ccccc3C2=O)ccc1O
19 | < 10% | < 10% | < 10% | – | – | – | – | O=C1/C(=C/c2c(O)cc(O)cc2O)Oc2cc(O)ccc21
20 | 11% | 14% | < 10% | – | – | – | – | O=C1/C(=C/c2ccc(Cl)cc2)Oc2cc(O)cc(O)c21
21 | 38% | 20% | < 10% | – | – | – | – | COc1ccc(/C=C2\Oc3cc(O)cc(O)c3C2=O)cc1

Row | inhibition [1] | inhibition (Bacteria [2]) | inhibition (Bacteria [3]) | Ki [4] | MIC (Klebsiella pneumoniae) | MIC (Escherichia coli [5]) | MIC (Escherichia coli [6]) | SMILES
22 | 14% | 20% | < 10% | – | – | – | – | COc1ccc(/C=C2\Oc3cc(O)cc(O)c3C2=O)c(OC)c1OC
23 | 16% | < 10% | < 10% | – | – | – | – | O=C1/C(=C/c2ccc(C3CCCCC3)cc2)Oc2cc(O)cc(O)c21
24 | 55% | 27% | < 10% | – | – | – | – | CN(C)c1ccc(/C=C2\Oc3cc(O)cc(O)c3C2=O)c(O)c1
25 | 68.7% | 41% | < 10% | 17 µM | 32 µg/mL | 64 µg/mL | 32 µg/mL | O=C1/C(=C/c2cn(CCCc3ccccc3)c3ccccc23)Oc2cc(O)cc(O)c21
26 | < 10% | 30% | < 10% | – | – | – | – | CCCCn1cc(/C=C2\Oc3cc(O)cc(O)c3C2=O)c2cc(O)ccc21
27 | 17% | 17.9% | < 10% | – | – | – | – | COc1ccc(/C=C2\Oc3cc(O)ccc3C2=O)c(OC)c1
28 | < 10% | 14% | < 10% | – | – | – | – | O=C1/C(=C/c2ccccc2O)Oc2cc(O)cc(O)c21
29 | 18% | 39% | < 10% | – | – | – | – | Cn1cc(/C=C2\Oc3cc(O)ccc3C2=O)c2cc(Br)ccc21
30 | 35% | 32% | < 10% | – | – | – | – | COc1cc(OC)c2c(c1)O/C(=C\c1ccc(F)cc1F)C2=O
31 | < 10% | 13% | < 10% | – | – | – | – | COc1cc(O)ccc1/C=C1\Oc2cc(O)ccc2C1=O
32 | < 10% | 12% | < 10% | – | – | – | – | Cc1ccc(O)c(/C=C2\Oc3cc(O)cc(O)c3C2=O)c1
33 | < 10% | < 10% | < 10% | – | – | – | – | COc1cc(O)ccc1/C=C1\Oc2ccccc2C1=O
34 | 84.5% | 49% | < 10% | 1.7 µM | 32 µg/mL | 128 µg/mL | 32 µg/mL | COc1ccc(/C=C2\Oc3c(ccc(O)c3O)C2=O)c(O)c1
35 | < 10% | 17% | < 10% | – | – | – | – | COc1cc(OC)c2c(c1)O/C(=C\c1ccc(OC)c(OC)c1OC)C2=O
36 | 46% | – | – | – | – | – | – | CCCCOc1ccc(/C=C2\Oc3cc(O)cc(O)c3C2=O)c(O)c1
37 | < 10% | < 10% | < 10% | – | – | – | – | O=C1/C(=C/c2ccccc2O)Oc2cc(O)ccc21
38 | 51% | 23% | < 10% | – | – | – | – | O=C1/C(=C/c2ccc(-n3ccnc3)cc2)Oc2cc(O)cc(O)c21
39 | < 10% | < 10% | < 10% | – | – | – | – | O=C1/C(=C/c2ccc(F)cc2)Oc2c(O)cccc21
40 | 52% | 43.6% | < 10% | – | – | – | – | COc1ccc(/C=C2\Oc3cc(O)cc(O)c3C2=O)c(OC)c1
41 | > 98% | 41% | > 98% | – | – | – | – | NCCN[C@H]1CC[C@@H](CC(=O)N[C@H]2Cc3cccc(C(=O)O)c3OB2O)CC1
42 | 50% | 19% | < 10% | – | – | – | – | O=C1/C(=C/c2ccc3ccccc3c2)Oc2c1ccc(O)c2O

Row | inhibition [1] | inhibition (Bacteria [2]) | inhibition (Bacteria [3]) | Ki [4] | MIC (Klebsiella pneumoniae) | MIC (Escherichia coli [5]) | MIC (Escherichia coli [6]) | SMILES
43 | < 10% | < 10% | < 10% | – | – | – | – | O=C1/C(=C/c2ccc(O)cc2O)Oc2cc(O)ccc21
44 | < 10% | < 10% | < 10% | – | – | – | – | O=C1/C(=C/c2c(O)cc(O)cc2O)Oc2c(O)cccc21
45 | < 10% | < 10% | < 10% | – | – | – | – | CCCCc1ccc(/C=C2\Oc3c(ccc(O)c3O)C2=O)cc1
46 | 44% | 22% | < 10% | – | – | – | – | O=C1/C(=C/c2cn(Cc3ccc(Br)cc3)c3ccccc23)Oc2cc(O)cc(O)c21
47 | < 10% | 15% | 13% | – | – | – | – | O=C1/C(=C/c2ccc(O)cc2O)Oc2c1ccc(O)c2I
48 | < 10% | 21.4% | < 10% | – | – | – | – | Cn1cc(/C=C2\Oc3cccc(O)c3C2=O)c2cc(Br)ccc21
49 | 30% | 28% | 10.3% | – | – | – | – | COc1ccc(/C=C2\Oc3c(ccc(O)c3O)C2=O)c(OC)c1
50 | 24% | < 10% | < 10% | – | – | – | – | O=C(O)c1ccc(/C=C2\Oc3c(O)cccc3C2=O)cc1
51 | < 10% | 17% | < 10% | – | – | – | – | O=C1/C(=C/c2ccc(C(F)(F)F)cc2)Oc2c1ccc(O)c2O
52 | 74% | 20% | 17% | 4.8 µM | 64 µg/mL | 128 µg/mL | 64 µg/mL | O=C1/C(=C/c2ccc(N3CCCCC3)cc2)Oc2cc(O)cc(O)c21
53 | 69% | 43% | < 10% | 5.5 µM | 32 µg/mL | 64 µg/mL | 32 µg/mL | O=C1/C(=C/c2cn(Cc3cccc(Br)c3)c3ccccc23)Oc2cc(O)cc(O)c21
54 | < 10% | 19% | < 10% | – | – | – | – | CN1CCN(c2ccc(/C=C3\Oc4cc(O)ccc4C3=O)cc2)CC1
55 | < 10% | 23% | < 10% | – | – | – | – | O=C1/C(=C/c2cn(Cc3ccccc3Br)c3ccccc23)Oc2cc(O)cc(O)c21
56 | < 10% | 13% | 14% | – | – | – | – | COc1cc(/C=C2\Oc3cc(O)ccc3C2=O)ccc1O
57 | 46% | 28% | < 10% | – | – | – | – | Cn1cc(/C=C2\Oc3cc(O)cc(O)c3C2=O)c2ccccc21
58 | < 10% | 12.4% | < 10% | – | – | – | – | O=C1/C(=C/c2ccc(O)cc2)Oc2cc(O)cc(O)c21
59 | 72% | 44% | < 10% | 2.5 µM | 16 µg/mL | 64 µg/mL | 64 µg/mL | O=C1/C(=C/c2cn(CC3CCCCC3)c3ccccc23)Oc2cc(O)cc(O)c21
60 | 54% | 43% | 11% | – | – | – | – | Cc1cccc(Cn2cc(/C=C3\Oc4cc(O)cc(O)c4C3=O)c3ccccc32)c1
61 | 12% | < 10% | < 10% | – | – | – | – | O=C1/C(=C/c2ccc(O)c(O)c2)Oc2cccc(O)c21

Row | SMILES | inhibition [1] | inhibition (Bacteria [2]) | inhibition (Bacteria [3]) | Ki [4] | MIC (Klebsiella pneumoniae) | MIC (Escherichia coli [5]) | MIC (Escherichia coli [6])
62 | COc1ccc(/C=C2\Oc3cc(O)cc(O)c3C2=O)cc1OC | 23% | 21% | < 10% | – | – | – | –
